We go through four compounds from BindingDB's records for doi:10.1021/jm00055a007 (Abbott Laboratories, 1993).

Broadly, the Ki is the dissociation constant of the complex between target and ligand, obtained from inhibition or displacement.

The target in this assay is Gonadotropin-releasing hormone receptor (Rattus norvegicus) (UniProt P30969).
Sequence of Gonadotropin-releasing hormone receptor (Rattus norvegicus) (P30969 whole entry, looked up): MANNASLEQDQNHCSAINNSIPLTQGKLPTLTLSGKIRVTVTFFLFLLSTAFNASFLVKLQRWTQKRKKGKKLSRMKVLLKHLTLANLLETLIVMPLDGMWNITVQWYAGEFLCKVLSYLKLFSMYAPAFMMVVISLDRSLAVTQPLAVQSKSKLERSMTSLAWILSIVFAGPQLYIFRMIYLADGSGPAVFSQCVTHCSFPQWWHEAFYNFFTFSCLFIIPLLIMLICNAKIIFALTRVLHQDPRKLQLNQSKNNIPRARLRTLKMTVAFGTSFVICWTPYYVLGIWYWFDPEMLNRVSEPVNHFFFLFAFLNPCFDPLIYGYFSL

For `CC(C)C[C@H](NC(=O)[C@@H](Cc1ccc2ccccc2c1)NC(=O)[C@H](Cc1ccc(O)cc1)NC(=O)[C@H](CO)NC(=O)[C@H](Cc1c[nH]c2ccccc12)NC(=O)[C@H](Cc1c[nH]cn1)NC(=O)[C@@H]1CCC(=O)N1)C(=O)N(C)[C@@H](CCCN=C(N)N)C(=O)N1CCC[C@H]1C(=O)NCC(N)=O` [nafarelin 8NMeArg], affinity was put at a Ki of 28.2 nM. That is a double-digit nanomolar value.

`CC(C)C[C@H](NC(=O)[C@@H](Cc1ccc2ccccc2c1)NC(=O)[C@H](Cc1ccc(O)cc1)NC(=O)[C@H](CO)NC(=O)[C@H](Cc1c[nH]c2ccccc12)NC(=O)[C@H](Cc1c[nH]cn1)NC(=O)[C@@H]1CCC(=O)N1)C(=O)N[C@@H](CCCN=C(N)N)C(=O)N1CCC[C@H]1C(=O)N(C)CC(N)=O` [nafarelin 10SarNH2]: the Ki stood at 0.03 nM. Against the preceding compound, the Ki is about 940-fold lower.

Turning to `CC(C)C[C@H](NC(=O)[C@@H](Cc1ccc2ccccc2c1)NC(=O)[C@H](Cc1ccc(O)cc1)NC(=O)[C@H](CO)NC(=O)[C@H](Cc1cccc2ccccc12)NC(=O)[C@H](Cc1cnc[nH]1)NC(=O)[C@@H]1CCC(=O)N1)C(=O)N[C@@H](CCCN=C(N)N)C(=O)N1CCC[C@H]1C(=O)NCC(N)=O` [nafarelin 31Nal], the affinity corresponds to a Ki of 0.03 nM.

`CC(C)C[C@H](NC(=O)[C@@H](Cc1ccc2ccccc2c1)NC(=O)[C@H](Cc1ccc(O)cc1)NC(=O)[C@H](CO)NC(=O)[C@H](Cc1c[nH]c2ccccc12)NC(=O)[C@H](Cc1c[nH]cn1)NC(=O)[C@@H]1CCC(=O)N1)C(=O)N[C@@H](CCCNC(=N)N)C(=O)N1CCC[C@H]1C(=O)NCC(N)=O` [nafarelin] showed a Ki of 0.01 nM.
